The values below are quoted from earlier work in patent publication US20020037319A1, “Drug preparations” (priority 1999, published 2002).

Structures can show the parent of a compound that is named as a salt.

For series [1] the following is noted: oral, therapeutic dosages between 100 mg and 200 mg per day.

With `O=C(O)Cc1ccccc1Nc1c(Cl)cccc1Cl` [diclofenac potassium], the solubility in water entry was “soluble”.

Consider `O=C(O)Cc1ccccc1Nc1c(Cl)cccc1Cl` [Diclofenac sodium], for which the solubility in water result is reported as “sparingly soluble”.

Regarding `O=C(O)Cc1ccccc1Nc1c(Cl)cccc1Cl` [diclofenac, 2-[2,6-di-chlorophenyl)amino]benzeneacetic acid, monosodium or monopotassium salt], the “treated patients who experience some form of GI (gastrointestinal) distress” value in series [1] is recorded as “more than 50%”. In addition, where the note is “sodium or potassium salt”, the solubility in chloroform result is “practically insoluble”, the “solubility in dilute acid” value is listed as “practically insoluble”, the solubility in ethanol entry is listed as “soluble” and the solubility in methanol entry is given as “freely soluble”.
